Among the test systems are UACC-62 melanoma; HT29 colon; SNB-19 CNS; MDA-MB-231 breast; M14 melanoma; T-47D breast; UACC-257 melanoma; RPMI-8226 leukemia; HS 578T breast; 786-0 renal; NCI-H23 lung; SF-539 CNS; SF-295 CNS; HCT-116 colon; SK-MEL-2 melanoma.
What all share (assay): NCI tumour cell line growth inhibition, 48 h

Structures are written as SMILES.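 96-well plates; 48 h exposure; 5 concentrations. Endpoints by linear interpolation between flanking doses. Not reached: highest tested concentration assigned. TGI is the concentration that stops growth completely.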 Bounds are passed on as bounds.

Take `CC1=NN(c2ccccc2Cl)C2(C1)SCC(=O)N2c1nc2ccccc2s1` (stereo not given): the TGI in the test on UACC-62 melanoma, in the test on HT29 colon, in the test on SNB-19 CNS, in the test with MDA-MB-231 breast, with M14 melanoma and in the test with T-47D breast was over 100 µM each time. Moreover, the TGI in the test on UACC-257 melanoma, in the test with RPMI-8226 leukemia, with HS 578T breast, in the test on 786-0 renal, in the test on NCI-H23 lung and in the test on SF-539 CNS was over 100 µM each time. Moreover, the TGI in the test with SF-295 CNS, in the test with HCT-116 colon and with SK-MEL-2 melanoma was over 100 µM in each case.
`CC1(c2nc3ccccc3[nH]2)CCC(CO)C(C)(C)O1` (stereo not given): the TGI in the test with UACC-62 melanoma, in the test on HT29 colon, in the test on SNB-19 CNS, in the test with MDA-MB-231 breast, in the test on M14 melanoma and with T-47D breast was over 100 µM in each case. For the same compound, the TGI with UACC-257 melanoma, in the test with RPMI-8226 leukemia, with HS 578T breast, with 786-0 renal, in the test on NCI-H23 lung and in the test with SF-539 CNS was over 100 µM in each case. The TGI with SF-295 CNS, with HCT-116 colon and with SK-MEL-2 melanoma was over 100 µM throughout.
As for `Nc1nc(Cl)c(N)c(NCC2(CO)CC(O)C2)n1` (stereo not given), the TGI in the test with UACC-62 melanoma, in the test on HT29 colon, in the test with SNB-19 CNS, in the test on MDA-MB-231 breast, in the test on M14 melanoma and in the test with T-47D breast was over 100 µM each time. In addition, the TGI in the test on UACC-257 melanoma, in the test with RPMI-8226 leukemia, in the test on HS 578T breast, with 786-0 renal, in the test on NCI-H23 lung and with SF-539 CNS was over 100 µM in each case. Moreover, the TGI in the test on SF-295 CNS, in the test with HCT-116 colon and in the test on SK-MEL-2 melanoma was over 100 µM in each case.
For the compound `O=C(c1no[n+]([O-])c1C(=O)c1csc2ccccc12)c1csc2ccccc12`, the TGI in the test on UACC-62 melanoma turned out to be 25.7 µM; with HT29 colon it was 13.7 µM; in the test on SNB-19 CNS, 32.3 µM; in the test on MDA-MB-231 breast, 18.4 µM; with M14 melanoma, 22.4 µM; in the test with T-47D breast it was 13.7 µM. Also, the TGI in the test with UACC-257 melanoma is 16.3 µM; in the test on RPMI-8226 leukemia it was 1.95 µM; in the test on HS 578T breast it was over 57.3 µM; in the test on 786-0 renal, 0.713 µM; in the test on NCI-H23 lung it was 32 µM; in the test on SF-539 CNS, 8.36 µM. Moreover, the TGI with SF-295 CNS was 29 µM; in the test on HCT-116 colon, 25.9 µM; with SK-MEL-2 melanoma, 20.7 µM.
In the case of `COc1ccc(C(c2ccccc2)N2C(=O)CCC2C(=O)O)cc1OC` (stereo not given), the TGI with UACC-62 melanoma, in the test on HT29 colon, in the test on SNB-19 CNS, in the test with MDA-MB-231 breast, with M14 melanoma and in the test on T-47D breast was over 100 µM each time. The TGI with UACC-257 melanoma, in the test with RPMI-8226 leukemia, in the test on HS 578T breast, in the test on 786-0 renal, in the test with NCI-H23 lung and in the test on SF-539 CNS was over 100 µM throughout. Also, the TGI in the test with SF-295 CNS, in the test with HCT-116 colon and in the test with SK-MEL-2 melanoma was over 100 µM each time.
With `O=Cc1cc(O)ccc1Br`, the TGI was 50.4 µM in the test on UACC-62 melanoma; 67.5 µM in the test on HT29 colon; over 100 µM in the test with SNB-19 CNS; over 100 µM in the test with MDA-MB-231 breast; over 92.2 µM in the test on M14 melanoma; over 100 µM in the test on T-47D breast. The TGI is over 91.1 µM in the test with UACC-257 melanoma; over 36 µM in the test on RPMI-8226 leukemia; over 100 µM in the test with HS 578T breast; over 78.3 µM in the test with 786-0 renal; 71 µM with NCI-H23 lung; 60.5 µM with SF-539 CNS. Further, the TGI in the test with SF-295 CNS was 99.5 µM; with HCT-116 colon, 47.8 µM; in the test with SK-MEL-2 melanoma it was over 93.2 µM.
As for `CC(C)c1cc(C(C)C)c(P2(=O)CC3C(Cl)(Cl)C3(C)C2)c(C(C)C)c1` (stereo not given), the TGI in the test on UACC-62 melanoma turned out to be 21.3 µM; in the test on HT29 colon, 24.6 µM; in the test on SNB-19 CNS, 19.4 µM; with MDA-MB-231 breast, 24.8 µM; with M14 melanoma, 23.2 µM; with T-47D breast it was 27.7 µM. The TGI with UACC-257 melanoma is 20.9 µM; in the test with RPMI-8226 leukemia, over 25.5 µM; in the test with HS 578T breast it was 47.8 µM; in the test with 786-0 renal, 14.6 µM; in the test on NCI-H23 lung it was 24.3 µM; in the test on SF-539 CNS, 27.1 µM. The values for the TGI in the test on SF-295 CNS, in the test with HCT-116 colon and in the test on SK-MEL-2 melanoma were 18.6 µM, 20.2 µM and 24.8 µM, respectively.
On to `COc1ccc(N=C/C=C/C(=C/COC(C)=O)OC(C)=O)cc1`, for which the TGI in the test with UACC-62 melanoma is over 100 µM; with HT29 colon, 70.6 µM; in the test on SNB-19 CNS, over 100 µM; in the test on MDA-MB-231 breast it was 65.3 µM; with M14 melanoma it was over 100 µM; in the test on T-47D breast, over 100 µM. The TGI is 87.2 µM with UACC-257 melanoma; over 100 µM in the test with RPMI-8226 leukemia; over 100 µM in the test with HS 578T breast; 90 µM in the test on 786-0 renal; 91.7 µM in the test on NCI-H23 lung; over 100 µM in the test with SF-539 CNS. Also, the TGI was over 100 µM with SF-295 CNS, 28.7 µM in the test on HCT-116 colon and 48.1 µM in the test with SK-MEL-2 melanoma.
For the compound `CN(N=O)C(N)=NC(=O)c1ccccc1`, the TGI in the test on UACC-62 melanoma, in the test with HT29 colon, in the test with SNB-19 CNS, with MDA-MB-231 breast, with M14 melanoma and with T-47D breast was over 100 µM throughout. Besides, the TGI with UACC-257 melanoma, with RPMI-8226 leukemia, in the test with HS 578T breast, in the test with 786-0 renal, in the test on NCI-H23 lung and in the test on SF-539 CNS was over 100 µM in each case. For the same compound, the TGI in the test with SF-295 CNS, in the test on HCT-116 colon and with SK-MEL-2 melanoma was over 100 µM in each case.
As for `CC(=O)NC1C(OCc2ccccc2)OC(CO)C(O)C1OCC(=O)NC(C)C(=O)NC(CCC(=O)Nc1ccc2c(c1)CN1C(=O)c3ccccc3C1=N2)C(N)=O` (stereo not given), the TGI in the test with UACC-62 melanoma, in the test on HT29 colon, in the test with SNB-19 CNS, in the test on MDA-MB-231 breast, with M14 melanoma and in the test with T-47D breast was over 100 µM each time. Moreover, the TGI in the test with UACC-257 melanoma, in the test on RPMI-8226 leukemia, in the test with HS 578T breast, in the test with 786-0 renal, in the test on NCI-H23 lung and in the test on SF-539 CNS was over 100 µM in each case. For the same compound, the TGI in the test on SF-295 CNS, in the test on HCT-116 colon and in the test with SK-MEL-2 melanoma was over 100 µM in each case.
Take `CC(=O)N(CCc1ccccc1)C(C)(C#N)c1ccccc1` (stereo not given): the TGI with UACC-62 melanoma, in the test on HT29 colon, in the test with SNB-19 CNS, with MDA-MB-231 breast, in the test with M14 melanoma and with T-47D breast was over 100 µM in each case. Moreover, the TGI in the test with UACC-257 melanoma, in the test with RPMI-8226 leukemia, in the test on HS 578T breast, with 786-0 renal, with NCI-H23 lung and in the test with SF-539 CNS was over 100 µM throughout. The TGI with SF-295 CNS, with HCT-116 colon and in the test on SK-MEL-2 melanoma was over 100 µM in each case.
Take `CCCN=C1S/C(=C/c2ccc(OC)c(OC)c2)C(=O)N1c1ccccc1`: the TGI is over 100 µM in the test with UACC-62 melanoma; over 100 µM in the test with HT29 colon; 63.4 µM in the test on SNB-19 CNS; 92.6 µM in the test with MDA-MB-231 breast; over 100 µM with M14 melanoma; over 100 µM with T-47D breast. For the same compound, the TGI in the test on UACC-257 melanoma was over 100 µM; in the test with RPMI-8226 leukemia, over 100 µM; in the test with HS 578T breast it was over 100 µM; in the test on 786-0 renal, 50.2 µM; with NCI-H23 lung, over 100 µM; in the test on SF-539 CNS it was 30.2 µM. Moreover, the values for the TGI in the test on SF-295 CNS, in the test on HCT-116 colon and in the test on SK-MEL-2 melanoma were 34.9 µM, over 100 µM and 85.8 µM, respectively.
